Results on 4 molecules are retold here after US8076455B2, “Guanosine triphosphate (GTP)-binding protein-coupled receptor protein, BG37” (Merck Sharp & Dohme Corp., priority 2000, dated 2011).

Molecules are shown by their SMILES.

Holding throughout (format): cell-based
Test [1] addresses T1, human BG37 (Homo sapiens, UniProt Q8TDU6).
T1 construct: Human BG37 gene cut out, utilizing the BamHI-EcoRV site, from pCR2.1-BG37ORF was subcloned into the BamHI-EcoRV digested pKT52 vector; expressed in transfected cells
T1 sequence (Q8TDU6 1-330): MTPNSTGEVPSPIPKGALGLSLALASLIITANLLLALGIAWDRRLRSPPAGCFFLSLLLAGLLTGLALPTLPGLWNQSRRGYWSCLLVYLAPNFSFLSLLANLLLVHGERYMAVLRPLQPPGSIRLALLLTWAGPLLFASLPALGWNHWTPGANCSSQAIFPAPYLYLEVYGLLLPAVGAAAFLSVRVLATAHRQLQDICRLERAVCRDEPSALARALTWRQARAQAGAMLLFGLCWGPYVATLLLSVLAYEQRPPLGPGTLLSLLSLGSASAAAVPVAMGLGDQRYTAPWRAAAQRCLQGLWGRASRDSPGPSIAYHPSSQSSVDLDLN
The test can be described thus: Assay of intracellular cAMP level (EIA) in human BG37-expressing cells (HEK/hBG37), steroid hormones. The conditions noted are these: steroid hormone at various concentrations, 37° C. for 15 minutes. How it is done:
On the day before the measurement of the intracellular cAMP level, cells were re-plated at a cell density of 4×10^4 cells/well on a poly-D-lysin-coated 96-well plate (Becton Dickinson), and then incubated at 37° C. for another 24 hours.

In test [2] the target is T1, human BG37. Kind of test: Bile acid-dependent increase of intracellular cAMP level (HTRF) in cells expressing the human BG37. Particulars: cells expressing the human BG37 (HEK/hBG37); reagent at various concentrations, 37° C. for 20 minutes. How it is done:
The intracellular cAMP level in the presence of a ligand was measured to determine the increase of the intracellular cAMP level through G proteins bound to the seven-transmembrane receptor.
On the day before the measurement of the intracellular cAMP level, cells were re-plated at a cell density of 4×10^4 cells/well on a poly-D-lysin-coated 96-well plate (Becton Dickinson), and then incubated at 37° C. for another 24 hours. Cells of the stable cell line were rinsed twice with 1 mM 3-Isobutyl-1-Methylxanthine (IBMX) (Nacalai Tesque) containing Opti-MEM solution (GIBCO BRL) (Opti-MEM-BSA-IBMX solution), and then incubated at 37° C. for 20 minutes. After removing the supernatant, Opti-MEM-IBMX solution containing a reagent at various concentrations was added thereto. The resulting mixture was incubated at 37° C. for 20 minutes. Then, the cells were lysed with 0.5% Triton X-100 to determine the level of intracellular cAMP.
Measurement of the intracellular cAMP level was carried out using cyclic AMP kit (HTRF) (Nihon Schering) according to the provided manual.

For test [3], the system named is mock-transfected cells which contained the vector alone. The test can be described thus: Intracellular cAMP level (EIA) in mock-transfected cells containing the vector alone (control cells). The conditions noted are these: various concentrations, 37° C. for 15 minutes. How it is done: Intracellular cAMP levels were determined using the method of Zlokarmik et al. (Science 279, 84 (1998)). The intracellular cAMP level in cells that reacted with the ligand was measured to determine the increase of intracellular cAMP level through G proteins bound to the seven-transmembrane receptor.
On the day before the measurement of the intracellular cAMP level, cells were re-plated at a cell density of 4×10^4 cells/well on a poly-D-lysin-coated 96-well plate (Becton Dickinson), and then incubated at 37° C. for another 24 hours. Cells of the stable cell line were rinsed twice with 0.1% BSA (SIGMA) and 1 mM 3-Isobutyl-1-Methylxanthine containing Opti-MEM solution (GIBCO BRL: Opti-MEM-BSA-IBMX solution) (Nacalai Tesque Inc.: IBMX), and then incubated at 37° C. for 20 minutes. After removing the supernatant, Opti-MEM-BSA-IBMX solution containing at various concentrations a steroid hormone, such as progesterone, was added thereto. The resulting mixture was incubated at 37° C. for 15 minutes. Then, the cells were lysed with Lysis Buffer to measure the level of intracellular cAMP.
The measurement of the intracellular cAMP level was carried out using cyclic AMP enzyme immuno-assay (EIA) system (Amersham Pharmacia Biotech) according to the provided manual.

`C[C@]12CCC(=O)C=C1CC[C@@H]1[C@@H]2CC[C@]2(C)C(=O)CC[C@@H]12` [androstenedione]: at human BG37 [1], the “intracellular cAMP level” value is reported as “increased in a concentration-dependent manner”.

For `C[C@H](CCC(=O)O)[C@H]1CC[C@H]2[C@@H]3[C@H](O)C[C@@H]4C[C@H](O)CC[C@]4(C)[C@H]3CC[C@]12C` [chenodeoxycholic acid], at human BG37 [2], the “intracellular cAMP level” value is “elevated”.

Consider `C[C@H](CCC(=O)O)[C@H]1CC[C@H]2[C@@H]3[C@H](O)C[C@@H]4C[C@H](O)CC[C@]4(C)[C@H]3C[C@H](O)[C@]12C` [cholic acid], for which, at human BG37 [2], the “intracellular cAMP level” value was “elevated”.

For `CC(=O)[C@H]1CC[C@H]2[C@@H]3CCC4=CC(=O)CC[C@]4(C)[C@H]3CC[C@]12C` [progesterone], the “concentration-dependent increase of intracellular cAMP” value in test [3] is reported as “not observed”.
